Measurements reported in patent US20100298141A1, “SUBSTITUTED PYRIDINE N-OXIDE HERBICIDES” (E. I. DU PONT DE NEMOURS AND COMPANY, priority 2007, published 2010).

How the values were obtained:
[1] = tested on: crabgrass; assay: Test A pre-/postemergence greenhouse test; format: in vivo, Digitaria sanguinalis; conditions: for Crabgrass, Large plant response rating: 0 to 100 scale
Outline: (§1)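 Sowing in loam/sand; same-day pre (directed soil spray) and post (foliar, 1–2 leaf, 2–10 cm) treatment with surfactant-containing non-phytotoxic solvent formulation; ~10 days in greenhouse; eye-scored injury against untreated plants.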

[2] = tested on: velvetleaf; assay: Test A pre-/postemergence greenhouse test; format: in vivo, Abutilon theophrasti; conditions: for Velvetleaf plant response rating: 0 to 100 scale
Outline: as §1

[3] = tested on: lambsquarters; assay: Test C pre-/postemergence test; format: in vivo, Chenopodium album; conditions: for Plant response rating, Lambsquarters: scale 0 to 100, 0 no effect, 100 complete control
Description: (§2) Seeds of plant species selected from blackgrass (Alopecurus myosuroides), downy brome (Bromus tectorum), green foxtail (Setaria viridis), Italian ryegrass (Lolium multiflorum), wheat (Triticum aestivum), wild oat (Avena fatua), catchweed bedstraw (Galium aparine), Russian thistle (Salsola kali), […] (Cynodon dactylon), Surinam grass (Brachiaria decumbens), cocklebur (Xanthium strumarium), corn (Zea mays), crabgrass (Digitaria sanguinalis), woolly cupgrass (Eriochloa villosa), giant foxtail (Setaria faberii), Goosegrass (Eleusin indica), johnsongrass (Sorghum halepense), kochia (Kochia scoparia), lambsquarters (Chenopodium album), morningglory (Ipomoea coccinea), eastern black nightshade (Solanum ptycanthum), yellow nutsedge (Cyperus esculentus), pigweed (Amaranthus retroflexus), common ragweed (Ambrosia elation), soybean (Glycine max), common (oilseed) sunflower (Helianthus annuus), and velvetleaf (Abutilon theophrasti) were planted and treated preemergence with test chemicals formulated in a non-phytotoxic solvent mixture which included a surfactant. At the same time, plants selected from these crop and weed species and also winter barley (Hordeum vulgare), canarygrass (Phalaris minor), and chickweed (Stellaria media) were treated with postemergence applications of some of the test chemicals formulated in the same manner. Plants ranged in height from 2 to 18 cm (1- to 4-leaf stage) for postemergence treatments. […] At time of treatment, test pots were flooded to 3 cm above the soil surface, treated by application of test compounds directly to the paddy water, and then maintained at that water depth for the duration of the test. […] A dash (-) response means no test result.

[4] = tested on: blackgrass; assay: Test C pre-/postemergence test; format: in vivo, Alopecurus myosuroides; conditions: Postemergence; for Plant response rating, Blackgrass: scale 0 to 100, 0 no effect, 100 complete control
Description: as §2

[5] = tested on: Surinam grass; assay: Test C pre-/postemergence test; format: in vivo, Brachiaria decumbens; conditions: for Surinam Grass plant response rating: preemergence, scale 0 (no effect) to 100 (complete control); for Plant response rating, Surinam Grass: scale 0 to 100, 0 no effect, 100 complete control
Description: as §2

[6] = tested on: green foxtail; assay: Test C pre-/postemergence test; format: in vivo, Setaria viridis; conditions: Postemergence; for Plant response rating, Foxtail, Green: scale 0 to 100, 0 no effect, 100 complete control
Description: as §2

[7] = tested on: velvetleaf; assay: Test C pre-/postemergence test; format: in vivo, Abutilon theophrasti; conditions: for Plant response rating, Velvetleaf: scale 0 to 100, 0 no effect, 100 complete control
Description: as §2

[8] = tested on: giant foxtail; assay: Test A pre-/postemergence greenhouse test; format: in vivo, Setaria faberi; conditions: for Foxtail, Giant plant response rating: 0 to 100 scale
Outline: as §1

[9] = tested on: common ragweed; assay: Test C pre-/postemergence test; format: in vivo, Ambrosia elation; conditions: for Plant response rating, Ragweed: scale 0 to 100, 0 no effect, 100 complete control
Description: as §2

[10] = tested on: woolly cupgrass; assay: Test C pre-/postemergence test; format: in vivo, Eriochloa villosa; conditions: for Plant response rating, Cupgrass, Woolly: scale 0 to 100, 0 no effect, 100 complete control
Description: as §2

[11] = tested on: barnyardgrass; assay: Test A pre-/postemergence greenhouse test; format: in vivo, Echinochloa crus-galli; conditions: for Barnyardgrass plant response rating: 0 to 100 scale
Outline: as §1

[12] = tested on: downy brome; assay: Test C pre-/postemergence test; format: in vivo, Bromus tectorum; conditions: Postemergence; for Plant response rating, Bromegrass, Downy: scale 0 to 100, 0 no effect, 100 complete control
Description: as §2

[13] = tested on: pigweed; assay: Test C pre-/postemergence test; format: in vivo, Amaranthus retroflexus; conditions: for Plant response rating, Pigweed: scale 0 to 100, 0 no effect, 100 complete control
Description: as §2

[14] = tested on: soybean; assay: Test C pre-/postemergence test; format: in vivo, Glycine max; conditions: for Plant response rating, Soybean: scale 0 to 100, 0 no effect, 100 complete control
Description: as §2

[15] = Postemergence, 125 g ai/ha, 0 is no effect, 100 is complete control
[16] = Postemergence, 500 g ai/ha, 0 is no effect, 100 is complete control
[17] = Preemergence, 125 g ai/ha, 0 no effect, 100 complete control
[18] = Preemergence, 500 g ai/ha, 0 to 100 scale where 0 is no effect and 100 is complete control
[19] = 62 g ai/ha, preemergence, scale 0 (no effect) to 100 (complete control)
[20] = 31 g ai/ha, Preemergence, scale 0 to 100
[21] = preemergence, 125 g ai/ha, scale 0 (no effect) to 100 (complete control)

Cn1nc(C(F)(F)F)c(C[S+]([O-])c2ccc(Cl)c[n+]2[O-])c1OC(F)F (centres unmarked) [Compound 6]
50: Velvetleaf plant response rating [2, 15] | Plant response rating, Blackgrass ([4]; 62 g ai/ha) | Plant response rating, Blackgrass ([4]; 125 g ai/ha) | Plant response rating, Blackgrass ([4]; 250 g ai/ha) | Plant response rating, Velvetleaf ([7]; Postemergence, 250 g ai/ha) | Plant response rating, Ragweed ([9]; Postemergence, 250 g ai/ha) | Plant response rating, Cupgrass, Woolly ([10]; Postemergence, 125 g ai/ha) | Plant response rating, Bromegrass, Downy ([12]; 125 g ai/ha) | Plant response rating (0 to 100), Soybean ([14]; Preemergence, 250 g ai/ha)
98: Surinam Grass plant response rating ([5]; 62 g ai/ha)
100: Crabgrass, Large plant response rating [1, 17] | Plant response rating, Crabgrass, Large [1, 18] | Plant response rating, Velvetleaf [2, 18] | Plant response rating (0 to 100), Lambsquarters ([3]; Preemergence, 250 g ai/ha) | Plant response rating (0 to 100), Surinam Grass ([5]; Preemergence, 250 g ai/ha) | Surinam Grass plant response rating ([5]; 125 g ai/ha) | Foxtail, Giant plant response rating [8, 17] | Plant response rating, Foxtail, Giant [8, 18] | Cupgrass, Woolly plant response rating [10, 19] | Plant response rating (0 to 100), Cupgrass, Woolly ([10]; Preemergence, 250 g ai/ha) | Cupgrass, Woolly plant response rating [10, 21] | Barnyardgrass plant response rating [11, 17] | Plant response rating, Barnyardgrass [11, 18] | Pigweed plant response rating [13, 19] | Plant response rating (0 to 100), Pigweed ([13]; Preemergence, 250 g ai/ha)
40: Plant response rating (0 to 100), Velvetleaf ([7]; Preemergence, 250 g ai/ha) | Plant response rating (0 to 100), Ragweed ([9]; Preemergence, 250 g ai/ha)
10: Plant response rating, Lambsquarters ([3]; Postemergence, 62 g ai/ha) | Plant response rating, Lambsquarters ([3]; Postemergence, 125 g ai/ha) | Plant response rating, Lambsquarters ([3]; Postemergence, 250 g ai/ha) | Plant response rating (0 to 100), Velvetleaf ([7]; Postemergence, 62 g ai/ha) | Plant response rating, Ragweed ([9]; Postemergence, 125 g ai/ha)
55: Plant response rating, Foxtail, Green ([6]; 62 g ai/ha) | Plant response rating, Cupgrass, Woolly ([10]; Postemergence, 250 g ai/ha)
5: Plant response rating (0 to 100), Soybean ([14]; Postemergence, 31 g ai/ha)
0: Lambsquarters plant response rating [3, 19] | Plant response rating (0 to 100), Lambsquarters ([3]; Postemergence, 31 g ai/ha) | Plant response rating (0 to 100), Blackgrass ([4]; 31 g ai/ha) | Plant response rating (0 to 100), Surinam Grass ([5]; Postemergence, 31 g ai/ha) | Plant response rating (0 to 100), Surinam Grass ([5]; Postemergence, 62 g ai/ha) | Velvetleaf plant response rating [7, 19] | Plant response rating (0 to 100), Velvetleaf ([7]; Postemergence, 31 g ai/ha) | Ragweed plant response rating [9, 20] | Ragweed plant response rating [9, 19] | Plant response rating (0 to 100), Ragweed ([9]; Postemergence, 31 g ai/ha) | Plant response rating (0 to 100), Ragweed ([9]; Postemergence, 62 g ai/ha) | Ragweed plant response rating [9, 21] | Plant response rating (0 to 100), Cupgrass, Woolly ([10]; Postemergence, 31 g ai/ha) | Plant response rating, Cupgrass, Woolly ([10]; Postemergence, 62 g ai/ha) | Plant response rating (0 to 100), Bromegrass, Downy ([12]; 31 g ai/ha) | Plant response rating (0 to 100), Pigweed ([13]; Postemergence, 31 g ai/ha) | Plant response rating (0 to 100), Pigweed ([13]; Postemergence, 62 g ai/ha) | Plant response rating, Pigweed ([13]; Postemergence, 125 g ai/ha) | Plant response rating, Pigweed ([13]; Postemergence, 250 g ai/ha) | Soybean plant response rating [14, 20] | Soybean plant response rating [14, 19] | Soybean plant response rating [14, 21]
30: Plant response rating, Surinam Grass ([5]; Postemergence, 125 g ai/ha) | Plant response rating, Surinam Grass ([5]; Postemergence, 250 g ai/ha) | Plant response rating (0 to 100), Foxtail, Green ([6]; 31 g ai/ha) | Plant response rating, Velvetleaf ([7]; Postemergence, 125 g ai/ha) | Plant response rating, Bromegrass, Downy ([12]; 62 g ai/ha)
90: Crabgrass, Large plant response rating [1, 16] | Velvetleaf plant response rating [2, 17] | Foxtail, Giant plant response rating [8, 16] | Cupgrass, Woolly plant response rating [10, 20] | Barnyardgrass plant response rating [11, 16] | Plant response rating, Soybean ([14]; Postemergence, 250 g ai/ha)
60: Plant response rating (0 to 100), Soybean ([14]; Postemergence, 62 g ai/ha)
80: Velvetleaf plant response rating [2, 16] | Barnyardgrass plant response rating [11, 15] | Plant response rating, Bromegrass, Downy ([12]; 250 g ai/ha)
70: Crabgrass, Large plant response rating [1, 15] | Plant response rating, Foxtail, Green ([6]; 125 g ai/ha) | Plant response rating, Foxtail, Green ([6]; 250 g ai/ha) | Foxtail, Giant plant response rating [8, 15] | Plant response rating, Soybean ([14]; Postemergence, 125 g ai/ha)
